From publication PMC3723589 (Channels, 2010)
Values joined by “and” are separate entries in the source; they are usually repeats but may differ in a detail not shown here. Equal values may be shown once. Read-outs that look alike come from different tables or passages of the source.

Assays:
mouse Slo1 K+ channels [1] = molecular target: T1, mouse Slo1 K+ channels (Mus musculus, UniProt Q08460); assay: Block of Slo1 currents, blocker applied extracellularly to outside-out patches; assay type: cell-based
T1 sequence (Q08460 66-1209 limits assumed): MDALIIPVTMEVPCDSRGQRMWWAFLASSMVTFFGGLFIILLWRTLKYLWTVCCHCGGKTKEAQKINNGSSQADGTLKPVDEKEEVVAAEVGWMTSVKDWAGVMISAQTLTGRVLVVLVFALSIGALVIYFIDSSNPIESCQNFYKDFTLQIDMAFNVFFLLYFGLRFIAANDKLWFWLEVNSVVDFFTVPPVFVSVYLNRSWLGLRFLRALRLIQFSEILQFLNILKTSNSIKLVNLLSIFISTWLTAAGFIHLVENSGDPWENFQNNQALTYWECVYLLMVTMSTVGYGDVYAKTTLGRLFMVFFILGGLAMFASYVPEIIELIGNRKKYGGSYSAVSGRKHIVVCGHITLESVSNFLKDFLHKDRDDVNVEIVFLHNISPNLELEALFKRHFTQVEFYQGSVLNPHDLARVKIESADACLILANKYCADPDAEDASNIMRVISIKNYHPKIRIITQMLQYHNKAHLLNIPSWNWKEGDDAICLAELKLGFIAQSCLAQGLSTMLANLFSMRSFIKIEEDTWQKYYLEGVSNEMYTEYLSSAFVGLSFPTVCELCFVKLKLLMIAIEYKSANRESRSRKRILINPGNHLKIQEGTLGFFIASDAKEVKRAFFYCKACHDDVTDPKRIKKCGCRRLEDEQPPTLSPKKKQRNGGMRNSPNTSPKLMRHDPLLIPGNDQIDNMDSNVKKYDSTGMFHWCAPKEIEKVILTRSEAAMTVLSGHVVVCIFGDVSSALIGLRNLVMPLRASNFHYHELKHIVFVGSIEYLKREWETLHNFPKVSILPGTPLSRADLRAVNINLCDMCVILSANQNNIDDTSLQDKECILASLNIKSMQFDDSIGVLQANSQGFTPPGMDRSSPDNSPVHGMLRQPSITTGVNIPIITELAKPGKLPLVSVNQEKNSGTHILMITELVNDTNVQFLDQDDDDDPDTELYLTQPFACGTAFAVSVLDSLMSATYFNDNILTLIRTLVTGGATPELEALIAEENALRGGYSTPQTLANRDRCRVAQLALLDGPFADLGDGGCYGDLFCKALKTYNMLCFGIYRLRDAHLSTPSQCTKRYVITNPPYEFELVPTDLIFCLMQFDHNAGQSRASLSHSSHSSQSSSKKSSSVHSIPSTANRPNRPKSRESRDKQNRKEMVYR

[2] = molecular target: T2, MC13 (Slo1(1-181):Slo3(171-1121)) (Mus musculus, UniProt O54982); assay: Block of MC13; assay type: cell-based
T2 sequence (O54982 171-1121): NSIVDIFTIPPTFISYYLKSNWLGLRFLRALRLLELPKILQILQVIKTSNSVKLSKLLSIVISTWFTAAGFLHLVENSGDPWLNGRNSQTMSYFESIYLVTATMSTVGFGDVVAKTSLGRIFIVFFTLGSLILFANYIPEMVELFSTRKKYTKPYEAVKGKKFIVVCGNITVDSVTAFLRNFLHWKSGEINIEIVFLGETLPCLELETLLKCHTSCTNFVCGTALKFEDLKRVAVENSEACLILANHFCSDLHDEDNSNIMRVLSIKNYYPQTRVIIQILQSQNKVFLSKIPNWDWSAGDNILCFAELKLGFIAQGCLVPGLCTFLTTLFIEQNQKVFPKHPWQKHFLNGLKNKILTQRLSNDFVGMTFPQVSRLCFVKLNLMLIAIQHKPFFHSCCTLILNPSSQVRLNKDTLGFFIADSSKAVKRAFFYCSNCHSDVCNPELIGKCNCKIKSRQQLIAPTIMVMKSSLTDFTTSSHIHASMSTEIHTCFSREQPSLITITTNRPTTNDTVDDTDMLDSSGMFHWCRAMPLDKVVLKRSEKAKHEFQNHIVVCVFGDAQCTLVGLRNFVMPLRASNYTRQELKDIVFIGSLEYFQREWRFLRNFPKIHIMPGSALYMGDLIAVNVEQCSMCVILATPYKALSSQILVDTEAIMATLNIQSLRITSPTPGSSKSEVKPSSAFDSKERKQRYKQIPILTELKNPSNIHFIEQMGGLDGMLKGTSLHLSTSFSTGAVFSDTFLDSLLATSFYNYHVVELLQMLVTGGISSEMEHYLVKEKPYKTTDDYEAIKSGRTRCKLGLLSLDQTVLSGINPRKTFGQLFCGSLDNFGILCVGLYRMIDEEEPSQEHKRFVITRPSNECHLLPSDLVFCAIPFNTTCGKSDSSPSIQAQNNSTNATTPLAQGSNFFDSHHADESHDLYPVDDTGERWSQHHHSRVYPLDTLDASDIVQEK
T2 sequence (Q08460 66-246 partner): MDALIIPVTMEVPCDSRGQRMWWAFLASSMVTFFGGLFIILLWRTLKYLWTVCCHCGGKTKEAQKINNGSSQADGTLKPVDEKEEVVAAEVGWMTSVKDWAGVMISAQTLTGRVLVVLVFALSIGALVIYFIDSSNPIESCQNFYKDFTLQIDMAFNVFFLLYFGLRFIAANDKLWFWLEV

mouse Slo1 K+ channels [3] = molecular target: T1, mouse Slo1 K+ channels; assay: Block of Slo1 currents, blocker applied cytosolically to inside-out patches; assay type: cell-based
[4] = molecular target: T2, MC13 (Slo1(1-181):Slo3(171-1121)); assay type: cell-based
[5] = pK and percent protonation of tertiary amines; assay type: physicochemical; settings: quinidine at pH 8.5; calculated from pK 8.6
IRK1 = settings: read-out: EC50, block of IRK1; cited from earlier work
ROMK1 = settings: cited from earlier work
[6] = test system: native pH-dependent KSper K+ channel; settings: 500 μM quinidine; activation at pH 7.5 and +100 mV; cited from earlier work
sperm = settings: cited from earlier work
[7] = quinidine; cited from earlier work
[8] = extracellular quinidine, 300 μM Ca2+, pH 8.5, fit OB-CB (2') 4 params
[9] = extracellular quinidine, pH 8.5, fit OB-CB (2') 4 params
[10] = intracellular quinidine, pH 8.5, fit OB-CB (2') 4 params

Compound `C=C[C@H]1C[N@@]2CC[C@H]1C[C@@H]2[C@@H](O)c1ccnc2ccc(OC)cc12` [quinidine] has a Kb (mouse Slo1 K+ channels [1]) of 950 ± 20 µM, a Kd (mouse Slo1 K+ channels [1]; Kbc, extracellular quinidine, 300 μM Ca2+, pH 8.5, fit OB-CB (2') 4 params) of 1200 ± 210 µM and a Kd (mouse Slo1 K+ channels [1]; Kbo, extracellular quinidine pH 7.0, 300 μM Ca2+, pH 8.5, fit OB (1a) 2 params) of 950 ± 20 µM. The Kd (mouse Slo1 K+ channels [1]; Kbo, extracellular quinidine, 300 μM Ca2+, pH 8.5, fit OB-CB (2') 4 params) was 1510 ± 160 µM, the Kd (mouse Slo1 K+ channels [1]; Kbo, extracellular quinidine, 300 μM Ca2+, pH 8.5, fit OB-CB (2a) 2 params) was 1490 ± 40 µM and the “zo (zδ)” value (mouse Slo1 K+ channels [1]; extracellular quinidine pH 7.0, 300 μM Ca2+, pH 8.5, fit OB (1a) 2 params) was 0.047 ± 0.01 e and 0.05 ± 0.01 e. For the same compound, the zc (mouse Slo1 K+ channels [1]; [8]) was 0.66 ± 0.1 e, the zo (mouse Slo1 K+ channels [1]; [8]) was 0.06 ± 0.08 e and the “quinidine concentration giving strong block of Slo3” value ([2]; at potentials near 0 mV, irrespective of the side of application) was “less than 10 μM”. The zc [2, 9] was -0.55 ± 1.5 e, the zo [2, 9] was -0.27 ± 0.02 e and the Kb (mouse Slo1 K+ channels [3]) was 92.8 ± 9.8 µM. The Kd (mouse Slo1 K+ channels [3]) was 207 ± 7.4 µM, the “effective change in Kb(0), pH 8.5 versus pH 7.0” value (mouse Slo1 K+ channels [3]; cytosolic quinidine) was 1.56 fold and the zδ (mouse Slo1 K+ channels [3]; cytosolic quinidine, 10 μM Ca2+ at pH 7.0, Eqn. 1 open channel block) was 0.11 ± 0.03 e. The zo (mouse Slo1 K+ channels [3]; intracellular quinidine, 300 μM Ca2+, pH 8.5, fit OB-CB (2a) 2 params) was 0.28 ± 0.02 e, the “change in effective Kb(0), pH 8.5 versus pH 8.2” value ([4]; cytosolic quinidine, Scheme 2a) was “approximately 2 fold” and the zc [4, 10] was -0.15 ± 0.38 e. For the same compound, the zo [4, 10] was -0.38 ± 0.10 e, the “block of MC13 at lower concentrations than block of Slo1 currents” value ([4]; quinidine, at potentials near 0 mV) was ~ 100 fold and the percent protonated [5] was 55.7% and 55.73%. The EC50 (IRK1) was 700 µM, the “inhibition of ROMK1” value (ROMK1) was “only moderately inhibited” and the “block of native KSper K+ channel” value [6] was “strongly block”. The “lowest concentration at which effects on sperm function have been reported” value (sperm) was 20 µM, the “pK (one protonatable site)” value [7] was about 4.2 and the “pK (second protonatable site, value used)” value [7] was 8.6.
